In US20240368104A1, “Novel Dialkoxynaphtho[2,3-C]Furan-1(3H)-One Derivatives and Pharmaceutical Composition For Preventing or Treating Respiratory Disease or SARS-COV-2 Infection Disease, Comprising Same” (priority 2021, published 2024):
Counter-ions that a name gives are not always drawn. Like-named read-outs stand apart in the source and are kept apart here.

Legend:
[1] = in vitro; details: African green monkey
[2] = test system: SARS-COV-2; test: microbe, parasite or virus in culture; type: cell-based; parameters: SI (Selectivity Index, CC50/IC50): unit not given here; details: for SI (Selectivity Index, CC50/IC50): SARS-COV-2, values >50 assumed to be 50; for IC50: read-out: SARS-COV-2 inhibition (IC50)
[3] = Severe acute respiratory syndrome coronavirus 2, Vero cells, 24 hours infection
[4] = Severe acute respiratory syndrome coronavirus 2, Vero, 24 h

SMILES	CC50 [1] [µM]	SI (Selectivity Index, CC50/IC50) [2]	IC50 [2, 3] [µM]	IC50 [2, 4] [µM]
COc1cc2cc3c(c(-c4ccc5nc(C)cc(O)c5c4)c2cc1OC)C(=O)OC3 [Example 147, 9-(4-hydroxy-2-methylquinolin-6-yl)-6,7-dimethoxynaphtho[2,3-c]furan-1(3H)-one]	> 50	1.0	> 50	
COc1cc2cc3c(c(-c4cc(C)nc5c(F)cc(F)cc45)c2cc1OC)C(=O)OC3 [Example 139, 9-(6,8-difluoro-2-methylquinolin-4-yl)-6,7-dimethoxynaphtho[2,3-c]furan-1(3H)-one]	> 50	1.0	> 50	
COc1cc2cc3c(c(-c4ccc(N5CCCC(c6cccc(C)c6)C5)nc4)c2cc1OC)C(=O)OC3 (stereo not drawn) [Example 202, 6,7-dimethoxy-9-(6-(3-(m-tolyl)piperidin-1-yl)pyridin-3-yl)naphtho[2,3-c]furan-1(3H)-one]	38.4	38.01	1.01	
CCC(C)N(C)c1ncc(-c2c3c(cc4cc(OC)c(OC)cc24)COC3=O)cn1.Cl (stereo not drawn) [Example 100, 9-(2-(sec-butyl(methyl)amino)pyrimidin-5-yl)-6,7-dimethoxynaphtho[2,3-c]furan-1(3H)-one hydrochloride]	> 50	96.21		0.52
COc1cc2cc3c(c(-c4ccc5nccc(Cl)c5c4)c2cc1OC)C(=O)OC3 [Example 138, 9-(4-chloroquinolin-6-yl)-6,7-dimethoxynaphtho[2,3-c]furan-1(3H)-one]	> 50	1.33	37.7	
CNc1ccc(-c2c3c(cc4cc(OC)c(OC)cc24)COC3=O)cc1 [Example 246, 6,7-dimethoxy-9-(4-(methylamino)phenyl)naphtho[2,3-c]furan-1(3H)-one]	> 50	15.18	3.29	
COc1cc2cc3c(c(-c4ccc5c(O)cc(C)nc5c4C)c2cc1OC)C(=O)OC3 [Example 146, 9-(4-hydroxy-2,8-dimethylquinolin-7-yl)-6,7-dimethoxynaphtho[2,3-c]furan-1(3H)-one]	> 50	1.0	> 50	
COc1cc2cc3c(c(-c4cc5c(cc4OP(=O)(NC(C)C)Oc4ccccc4)OCO5)c2cc1OC)C(=O)OC3 (stereo not drawn) [Example 278, 6-(6,7-dimethoxy-3-oxo-1,3-dihydronaphtho[2,3-c]furan-4-yl)benzo[d][1,3]dioxol-5-yl phenyl isopropylphosphoramidate]	> 50	1.00		> 50
CCN(c1ccc(-c2c3c(cc4cc(OC)c(OC)cc24)COC3=O)cn1)c1ncn(CC)n1 [Example 207, 9-(6-(ethyl(1-ethyl-1H-1,2,4-triazol-3-yl)amino)pyridin-3-yl)-6,7-dimethoxynaphtho[2,3-c]furan-1(3H)-one]	> 50	7.57	6.6	
COc1cc2cc3c(c(-c4ccc(N5CCCCC5)nc4)c2cc1OC)C(=O)OC3 [Example 123, 6,7-dimethoxy-9-(6-(piperidin-1-yl)pyridin-3-yl)naphtho[2,3-c]furan-1(3H)-one]	> 50	145.26	0.34	
CCN(CCOC)c1ccc(-c2c3c(cc4cc(OC)c(OC)cc24)COC3=O)cc1 [Example 253, 9-(4-(ethyl(2-methoxyethyl)amino)phenyl)-6,7-dimethoxynaphtho[2,3-c]furan-1(3H)-one]	> 50	20.54	2.43	
COc1cc2cc3c(c(-c4ccc(N(C)c5nnc(C)o5)nc4)c2cc1OC)C(=O)OC3 [Example 231, 6,7-dimethoxy-9-(6-(methyl(5-methyl-1,3,4-oxadiazol-2-yl)amino)pyridin-3-yl)naphtho[2,3-c]furan-1(3H)-one]	> 50	1.00	> 50	
COc1cc2cc3c(c(-c4cc5c(cc4OC(=O)[C@@H]4CCCN4)OCO5)c2cc1OC)C(=O)OC3 [Example 273, 6-(6,7-dimethoxy-3-oxo-1,3-dihydronaphtho[2,3-c]furan-4-yl)benzo[d][1,3]dioxol-5-yl L-prolinate]	> 50	36.52	1.37	
CCN(CCO)c1ncc(-c2c3c(cc4cc(OC)c(OC)cc24)COC3=O)cn1.Cl [Example 81, 9-(2-(ethyl(2-hydroxyethyl)amino)pyrimidin-5-yl)-6,7-dimethoxynaphtho[2,3-c]furan-1(3H)-one hydrochloride]	> 50	2.43		20.6
COc1cc2cc3c(c(-c4ccc5nccc(O)c5c4)c2cc1OC)C(=O)OC3 [Example 117, 9-(4-hydroxyquinolin-6-yl)-6,7-dimethoxynaphtho[2,3-c]furan-1(3H)-one]	> 50	1.0	> 50	
COc1cc2cc3c(c(-c4ccc(N5CCC(C)CC5)nc4)c2cc1OC)C(=O)OC3 [Example 159, 6,7-dimethoxy-9-(6-(4-methylpiperidin-1-yl)pyridin-3-yl)naphtho[2,3-c]furan-1(3H)-one]	> 50	32.86	1.52	
COc1cc2c(OC)c3c(c(-c4ccc(-n5cc(C#N)c(N(C)C)n5)nc4)c2cc1OC)COC3=O [Example 264, 3-(dimethylamino)-1-(5-(6,7,9-trimethoxy-1-oxo-1,3-dihydronaphtho[2,3-c]furan-4-yl)pyridin-2-yl)-1H-pyrazol-4-carbonitrile]	> 50	1.00	> 50	
COc1cc2cc3c(c(-c4ccc(N(C)c5ccc(C#N)cc5)nc4)c2cc1OC)C(=O)OC3.Cl [Example 218, 4-((5-(6,7-dimethoxy-3-oxo-1,3-dihydronaphtho[2,3-c]furan-4-yl)pyridin-2-yl)(methyl)amino)benzonitrile]	> 50	65.75		0.76
COc1cc2cc3c(c(-c4cnccn4)c2cc1OC)C(=O)OC3 [Example 32, 6,7-dimethoxy-9-(pyrazin-2-yl)naphtho[2,3-c]furan-1(3H)-one]	> 50	1.00	> 50	
COc1cc2cc3c(c(-c4cccc(N5CCCC5)c4)c2cc1OC)C(=O)OC3.Cl [Example 252, 6,7-dimethoxy-9-(3-(pyrrolidin-1-yl)phenyl)naphtho[2,3-c]furan-1(3H)-one]	> 50	1		> 50
COc1cc2cc3c(c(-c4cc5c(cc4OC(=O)C(N)C(C)C)OCO5)c2cc1OC)C(=O)OC3.Cl (stereo in doubt) [Example 269, 6-(6,7-dimethoxy-3-oxo-1,3-dihydronaphtho[2,3-c]furan-4-yl)benzo[d][1,3]dioxol-5-yl L-valinate hydrochloride]	> 50	94.66		0.53
COC[C@H]1CCCN1c1ncc(-c2c3c(cc4cc(OC)c(OC)cc24)COC3=O)cn1 [Example 102, (R)-6,7-dimethoxy-9-(2-(2-(methoxymethyl)pyrrolidin-1-yl)pyrimidin-5-yl)naphtho[2,3-c]furan-1(3H)-one hydrochloride]	> 50	30.41		1.64
